Assays:
JAK-2 enzyme = JAK-2 enzyme (Homo sapiens, UniProt O60674); assay: JAK2 Inhibition Assay; format: biochemical; conditions: 15 μM poly(Glu)4Tyr, 12 μM ATP, 25° C.
Protocol: (§1) Compounds were screened for their ability to inhibit JAK3 using the assay shown below. Reactions were carried out in a kinase buffer containing 100 mM HEPES (pH 7.4), 1 mM DTT, 10 mM MgCl2, 25 mM NaCl, and 0.01% BSA. Substrate concentrations in the assay were 5 μM ATP (200 uCi/μmole ATP) and 1 μM poly(Glu)4Tyr. Reactions were carried out at 25° C. and 1 nM JAK3.
(§2) To each well of a 96 well polycarbonate plate was added 1.5 μl of a candidate JAK3 inhibitor along with 50 μl of kinase buffer containing 2 μM poly(Glu)4Tyr and […]. This was then mixed and […] of kinase buffer containing 2 nM JAK3 enzyme was added to start the reaction. After 20 minutes at room temperature (25° C.), the reaction was stopped with 50 μl of 20% trichloroacetic acid (TCA) that also contained 0.4 mM ATP. The entire contents of each well were then transferred to a 96 well glass fiber filter plate using a TomTek Cell Harvester. After washing, 60 μl of scintillation fluid was added and ^33P incorporation detected on a Perkin Elmer TopCount.
The assays were as described above in Example 36 except that JAK-2 enzyme was used, the final poly(Glu)4Tyr concentration was 15 μM, and final ATP concentration was 12 μM.
(§3) Tables 5 and 6 depict enzyme inhibition data (Ki) for certain exemplary compounds. Compound numbers in Tables 5 and 6 correspond to those compounds depicted in Tables 1 and 2, respectively.

JAK3 = target: T1, JAK3 (Homo sapiens, UniProt P52333); assay: JAK3 Inhibition Assay; format: biochemical; conditions: 1 μM poly(Glu)4Tyr, 5 μM ATP, 1 nM JAK3, 25° C.; read-out: JAK3 enzyme inhibition data (Ki)
T1 sequence (P52333 1-1124): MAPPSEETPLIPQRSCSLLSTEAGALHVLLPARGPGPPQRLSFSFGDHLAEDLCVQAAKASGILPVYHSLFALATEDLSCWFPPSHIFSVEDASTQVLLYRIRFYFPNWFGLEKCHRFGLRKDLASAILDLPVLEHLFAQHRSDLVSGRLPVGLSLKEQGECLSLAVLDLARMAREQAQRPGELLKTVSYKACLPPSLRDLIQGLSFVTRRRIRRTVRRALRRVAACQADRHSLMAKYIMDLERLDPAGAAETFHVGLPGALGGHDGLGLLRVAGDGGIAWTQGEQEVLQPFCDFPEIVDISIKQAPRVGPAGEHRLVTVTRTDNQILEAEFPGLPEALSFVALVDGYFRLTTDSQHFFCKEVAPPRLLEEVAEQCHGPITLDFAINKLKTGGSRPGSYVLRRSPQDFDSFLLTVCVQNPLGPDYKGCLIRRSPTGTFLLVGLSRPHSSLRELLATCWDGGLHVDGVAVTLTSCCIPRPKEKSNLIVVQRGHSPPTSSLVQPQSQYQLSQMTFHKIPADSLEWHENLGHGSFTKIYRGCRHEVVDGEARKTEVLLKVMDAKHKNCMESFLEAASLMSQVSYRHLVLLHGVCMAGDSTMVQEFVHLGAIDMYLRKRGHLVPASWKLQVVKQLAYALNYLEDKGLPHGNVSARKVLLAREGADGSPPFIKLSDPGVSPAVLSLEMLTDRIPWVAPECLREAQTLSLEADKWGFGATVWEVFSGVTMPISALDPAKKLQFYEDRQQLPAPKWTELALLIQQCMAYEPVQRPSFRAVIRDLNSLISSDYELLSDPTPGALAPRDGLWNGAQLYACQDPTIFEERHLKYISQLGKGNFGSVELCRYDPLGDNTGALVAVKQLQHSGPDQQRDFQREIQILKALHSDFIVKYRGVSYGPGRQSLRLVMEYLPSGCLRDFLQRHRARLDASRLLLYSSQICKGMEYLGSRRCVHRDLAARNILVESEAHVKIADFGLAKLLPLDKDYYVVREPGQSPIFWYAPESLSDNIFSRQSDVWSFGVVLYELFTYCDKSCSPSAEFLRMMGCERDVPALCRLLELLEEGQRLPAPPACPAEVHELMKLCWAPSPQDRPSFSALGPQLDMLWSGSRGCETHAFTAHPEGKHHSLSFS
Protocol: as §1, §2, §3

Sequence of JAK-2 enzyme (O60674 whole entry, species assumed): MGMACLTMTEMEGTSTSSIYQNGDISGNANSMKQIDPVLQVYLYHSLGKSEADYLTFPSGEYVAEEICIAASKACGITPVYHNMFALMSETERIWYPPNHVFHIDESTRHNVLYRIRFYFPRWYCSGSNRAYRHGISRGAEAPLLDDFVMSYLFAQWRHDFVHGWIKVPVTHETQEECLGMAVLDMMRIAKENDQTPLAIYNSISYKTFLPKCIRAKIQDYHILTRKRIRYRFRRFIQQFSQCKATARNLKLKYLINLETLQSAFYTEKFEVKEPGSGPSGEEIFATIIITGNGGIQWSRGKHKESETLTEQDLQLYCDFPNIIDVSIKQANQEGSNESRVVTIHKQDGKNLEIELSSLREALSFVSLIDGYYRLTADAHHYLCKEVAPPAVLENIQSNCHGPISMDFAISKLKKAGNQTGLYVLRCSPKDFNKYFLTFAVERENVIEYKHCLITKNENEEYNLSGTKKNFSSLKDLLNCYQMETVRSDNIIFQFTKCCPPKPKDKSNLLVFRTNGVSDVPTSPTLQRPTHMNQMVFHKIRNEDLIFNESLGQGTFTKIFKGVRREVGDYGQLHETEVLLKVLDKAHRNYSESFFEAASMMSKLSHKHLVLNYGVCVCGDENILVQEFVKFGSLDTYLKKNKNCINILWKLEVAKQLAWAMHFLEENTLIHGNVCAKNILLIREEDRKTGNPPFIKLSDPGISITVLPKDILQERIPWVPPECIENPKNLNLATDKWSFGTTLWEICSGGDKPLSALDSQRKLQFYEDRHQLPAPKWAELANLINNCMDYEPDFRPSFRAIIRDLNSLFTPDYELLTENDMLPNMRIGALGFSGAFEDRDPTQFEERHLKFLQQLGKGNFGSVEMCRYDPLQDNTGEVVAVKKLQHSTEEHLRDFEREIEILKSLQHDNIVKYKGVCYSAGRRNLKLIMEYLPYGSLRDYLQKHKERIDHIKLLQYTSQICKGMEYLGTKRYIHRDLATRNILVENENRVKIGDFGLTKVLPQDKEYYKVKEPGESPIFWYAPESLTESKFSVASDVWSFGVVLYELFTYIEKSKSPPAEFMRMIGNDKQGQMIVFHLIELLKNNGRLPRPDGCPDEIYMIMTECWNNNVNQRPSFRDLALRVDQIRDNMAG

| Compound | Ki (JAK-2 enzyme) | Ki (JAK3) |
| --- | --- | --- |
| CCCC(CCC)n1cc(-c2ncnc3[nH]ccc23)cn1 [Compound 37] | < 0.1 µM | < 0.1 µM |
| N#CCCN(CCC(F)(F)F)C(=O)c1cc(-c2ncnc3[nH]ccc23)co1 [Compound 230, N-(2-cyanoethyl)-4-(7H-pyrrolo[2,3-d]pyrimidin-4-yl)-N-(3,3,3-trifluoropropyl)furan-2-carboxamide] | < 0.1 µM | 0.1 to 0.5 µM |
| O=C(NCc1ccccc1)c1cc(-c2ncnc3[nH]ccc23)c[nH]1 [Compound 214] | < 0.1 µM | < 0.1 µM |
| CC1CCCN1C(=O)c1ccc(-c2ncnc3[nH]ccc23)o1 (centres unmarked) [Compound 218] | < 0.1 µM | 0.1 to 0.5 µM |
| CC(C(=O)NC1CC1)n1cc(-c2ncnc3[nH]ccc23)cn1 (centres unmarked) [Compound 73] | 0.1 to 0.5 µM | 0.1 to 0.5 µM |
| CC1CCC(C(=O)Nc2nc(-c3ncnc4[nH]ccc34)cs2)CC1 (centres unmarked) [Compound 62] | < 0.1 µM | 0.1 to 0.5 µM |
| CCC(CC)n1cc(-c2ncnc3[nH]ccc23)cn1 [Compound 39] | < 0.1 µM | < 0.1 µM |
| CN(CCC#N)C(=O)c1cc(-c2ncnc3[nH]ccc23)c[nH]1 [Compound 23] | < 0.1 µM | < 0.1 µM |
| O=C(c1cc(-c2ncnc3[nH]ccc23)c[nH]1)N1CCCC1C(F)(F)F (centres unmarked) [Compound 53] | < 0.1 µM | 0.1 to 0.5 µM |
| COCCN(CCOC)C(=O)c1cc(-c2ncnc3[nH]ccc23)c[nH]1 [Compound 25] | < 0.1 µM | 0.1 to 0.5 µM |
| CC(=O)CCC(=O)Nc1nc(-c2ncnc3[nH]ccc23)cs1 [Compound 71] | < 0.1 µM | 0.1 to 0.5 µM |
| C[C@@H]1CC[C@@H](C)N1C(=O)c1ccc(-c2ncnc3[nH]ccc23)o1 [Compound 126] | < 0.1 µM | < 0.1 µM |
| CC[C@@H]1CC[C@@H](CC)N1C(=O)c1ccc(-c2ncnc3[nH]ccc23)o1 [Compound 194] | < 0.1 µM | < 0.1 µM |
| C=CCN(C(=O)c1ccc(-c2ncnc3[nH]ccc23)o1)[C@@H](C)c1ccccc1 [Compound 222] | < 0.1 µM | < 0.1 µM |
| O=C(c1ccc(-c2ncnc3[nH]ccc23)o1)N(CCC(F)(F)F)Cc1ccccc1 [Compound 123] | < 0.1 µM | < 0.1 µM |
| O=C(c1ccc(-c2ncnc3[nH]ccc23)o1)N(CC1CC1)CC(F)(F)F [Compound 120] | < 0.1 µM | < 0.1 µM |
| CCCn1cc(-c2ncnc3[nH]ccc23)cn1 [Compound 106] | < 0.1 µM | 0.1 to 0.5 µM |
| O=C(c1ccc(-c2ncnc3[nH]ccc23)o1)N(CCC(F)(F)F)CC1CCCC1 [Compound 212] | < 0.1 µM | < 0.1 µM |
| O=C(CCc1ccccc1)Nc1nc(-c2ncnc3[nH]ccc23)cs1 [Compound 68] | < 0.1 µM | < 0.1 µM |
| CCCCN(CC)C(=O)c1cc(-c2ncnc3[nH]cc(Cl)c23)c[nH]1 [Compound 198] | < 0.1 µM | < 0.1 µM |
| Cn1cc(-c2ncnc3[nH]ccc23)cn1 [Compound 3] | 0.1 to 0.5 µM | 0.1 to 0.5 µM |
| O=C(c1cc(-c2ncnc3[nH]cc(Cl)c23)c[nH]1)N(CCC(F)(F)F)CC1CC1 [Compound 227] | < 0.1 µM | < 0.1 µM |
| O=C(CC1CCCC1)Nc1nc(-c2ncnc3[nH]ccc23)cs1 [Compound 32] | < 0.1 µM | < 0.1 µM |
| CC(C(=O)NCc1cccn1C)n1cc(-c2ncnc3[nH]ccc23)cn1 (centres unmarked) [Compound 89] | < 0.1 µM | 0.1 to 0.5 µM |
| CC(C)n1cc(-c2ncnc3[nH]ccc23)cn1 [Compound 34] | < 0.1 µM | < 0.1 µM |
| O=C(Nc1nc(-c2ncnc3[nH]ccc23)cs1)C1CCN(C(=O)c2ccccc2)CC1 [Compound 173] | < 0.1 µM | < 0.1 µM |

| Compound | Ki (JAK-2 enzyme) | Ki (JAK3) |
| --- | --- | --- |
| COCCN(C)C(=O)c1cc(-c2ncnc3[nH]cc(C)c23)c[nH]1 [Compound 200] | 0.1 to 0.5 µM | 0.5 to 5 µM |
| O=C(c1cc(-c2ncnc3[nH]ccc23)co1)N(CCC(F)(F)F)CC1CCC1 [Compound 250] | < 0.1 µM | 0.1 to 0.5 µM |
| CC(=O)N1CCC(C(=O)Nc2nc(-c3ncnc4[nH]ccc34)cs2)CC1 [Compound 169] | < 0.1 µM | < 0.1 µM |
| O=C(c1ccc(-c2ncnc3[nH]ccc23)o1)N(CCC(F)(F)F)CC1CC1 [Compound 122] | < 0.1 µM | < 0.1 µM |
| CN(CCC#N)C(=O)c1ccc(-c2ncnc3[nH]ccc23)o1 [Compound 119] | < 0.1 µM | < 0.1 µM |
| O=C(c1cc(-c2ncnc3[nH]cc(Cl)c23)c[nH]1)N(CCC(F)(F)F)CC1CCC1 [Compound 241] | < 0.1 µM | 0.1 to 0.5 µM |
| CC(C)CN(CCC#N)C(=O)c1cc(-c2ncnc3[nH]ccc23)c[nH]1 [Compound 187] | < 0.1 µM | < 0.1 µM |
| N#CCCN(Cc1cccnc1)C(=O)c1cc(-c2ncnc3[nH]ccc23)c[nH]1 [Compound 18] | < 0.1 µM | < 0.1 µM |
| O=C(c1cc(-c2ncnc3[nH]ccc23)c[nH]1)N1CCCC1CO (centres unmarked) [Compound 41] | 0.1 to 0.5 µM | 0.5 to 5 µM |
| CCCNC(=O)C(C)n1cc(-c2ncnc3[nH]ccc23)cn1 (centres unmarked) [Compound 90] | 0.1 to 0.5 µM | < 0.1 µM |
| N#CCCN(CCC#N)C(=O)c1cc(-c2ncnc3[nH]ccc23)c[nH]1 [Compound 134] | < 0.1 µM | < 0.1 µM |
| CC(C)(CC(=O)O)CC(=O)Nc1nc(-c2ncnc3[nH]ccc23)cs1 [Compound 145] | 0.1 to 0.5 µM | 0.1 to 0.5 µM |
| CCOC(=O)C1CCN(C(=O)c2cc(-c3ncnc4[nH]ccc34)c[nH]2)CC1 [Compound 43] | 0.5 to 5 µM | 0.5 to 5 µM |
| CCC(C)CC(=O)Nc1nc(-c2ncnc3[nH]ccc23)cs1 (centres unmarked) [Compound 98] | < 0.1 µM | < 0.1 µM |
| O=C(c1cc(-c2ncnc3[nH]cc(Cl)c23)c[nH]1)N(CC1CCC1)CC(F)(F)F [Compound 240] | < 0.1 µM | < 0.1 µM |
| N#CCN(Cc1ccccc1)C(=O)c1cc(-c2ncnc3[nH]ccc23)c[nH]1 [Compound 111] | < 0.1 µM | < 0.1 µM |
| CCC(C)n1cc(-c2ncnc3[nH]ccc23)cn1 (centres unmarked) [Compound 35] | < 0.1 µM | < 0.1 µM |
| CC(C)CN(CCC(F)(F)F)C(=O)c1ccc(-c2ncnc3[nH]ccc23)o1 [Compound 211] | < 0.1 µM | < 0.1 µM |
| CC(C)CNC(=O)c1cc(-c2ncnc3[nH]ccc23)c[nH]1 [Compound 9] | < 0.1 µM | < 0.1 µM |
| CCCN(CCC#N)C(=O)c1cc(-c2ncnc3[nH]ccc23)c[nH]1 [Compound 21] | < 0.1 µM | < 0.1 µM |
| CC(C)CN(CCC#N)C(=O)c1cc(-c2ncnc3[nH]cc(Cl)c23)c[nH]1 [Compound 243] | < 0.1 µM | < 0.1 µM |
| COC(=O)C1C2C=CC(C2)C1C(=O)Nc1nc(-c2ncnc3[nH]ccc23)cs1 (centres unmarked) [Compound 155] | < 0.1 µM | 0.1 to 0.5 µM |
| CN(C)C1CCN(C(=O)c2cc(-c3ncnc4[nH]ccc34)c[nH]2)C1 (centres unmarked) [Compound 50] | 0.5 to 5 µM | 0.5 to 5 µM |
| O=C(c1ccc(-c2ncnc3[nH]ccc23)o1)N(CC1CCC1)CC(F)(F)F [Compound 216] | < 0.1 µM | < 0.1 µM |
| O=C(c1cc(-c2ncnc3[nH]ccc23)c[nH]1)N(CC1CC1)CC(F)(F)F [Compound 109] | < 0.1 µM | < 0.1 µM |
| CC(CC(F)(F)F)C(=O)Nc1nc(-c2ncnc3[nH]ccc23)cs1 (centres unmarked) [Compound 102] | < 0.1 µM | < 0.1 µM |
